Values belong to the compound of their own block, whether it stands above or below them. The source made the active and inactive calls. No cut-off for these calls is given here.
Experiments:
RPMI-8226 [1] = experiment: cells; details: Homo sapiens, RPMI-8226, 72 h
Description: Antiproliferative activity against human RPMI-8226 cells assessed as inhibition of cell proliferation incubated for 72 hrs by CCK8 assay

RPMI-8226 [2] = experiment: Antiproliferative activity against human RPMI8226 cells assessed as inhibition of cell proliferation at 125 uM incubated for 72 hrs by CCK8 assay; format: functional
RPMI-8226 [3] = experiment: Induction of apoptosis in human RPMI8226 cells assessed as viable cells at 1 uM measured after 36 hrs by Annexin V-FITC based flow cytometry (reference value: 91.68%); format: functional; details: read-out: Activity
RPMI-8226 [4] = experiment: Induction of apoptosis in human RPMI8226 cells assessed as early apoptotic cells at 1 uM measured after 36 hrs by Annexin V-FITC based flow cytometry (reference value: 7.48%); format: functional
RPMI-8226 [5] = experiment: Induction of apoptosis in human RPMI8226 cells assessed as late apoptotic cells at 1 uM measured after 36 hrs by Annexin V-FITC based flow cytometry (reference value: 0.81%); format: functional
RPMI-8226 [6] = experiment: Induction of apoptosis in human RPMI8226 cells assessed as necrotic cells at 1 uM measured after 36 hrs by Annexin V-FITC based flow cytometry (reference value: 0.03%); format: functional
RPMI-8226 [7] = experiment: Induction of apoptosis in human RPMI8226 cells assessed as viable cells at 2 uM measured after 36 hrs by Annexin V-FITC based flow cytometry (reference value: 91.68%); format: functional; details: read-out: Activity
RPMI-8226 [8] = experiment: Induction of apoptosis in human RPMI8226 cells assessed as early apoptotic cells at 2 uM measured after 36 hrs by Annexin V-FITC based flow cytometry (reference value: 7.48%); format: functional
RPMI-8226 [9] = experiment: Induction of apoptosis in human RPMI8226 cells assessed as late apoptotic cells at 2 uM measured after 36 hrs by Annexin V-FITC based flow cytometry (reference value: 0.81%); format: functional
RPMI-8226 [10] = experiment: Induction of apoptosis in human RPMI8226 cells assessed as necrotic cells at 2 uM measured after 36 hrs by Annexin V-FITC based flow cytometry (reference value: 0.03%); format: functional
RPMI-8226 [11] = experiment: Induction of apoptosis in human RPMI8226 cells assessed as viable cells at 4 uM measured after 36 hrs by Annexin V-FITC based flow cytometry (reference value: 91.68%); format: functional; details: read-out: Activity
RPMI-8226 [12] = experiment: Induction of apoptosis in human RPMI8226 cells assessed as early apoptotic cells at 4 uM measured after 36 hrs by Annexin V-FITC based flow cytometry (reference value: 7.48%); format: functional
RPMI-8226 [13] = experiment: Induction of apoptosis in human RPMI8226 cells assessed as late apoptotic cells at 4 uM measured after 36 hrs by Annexin V-FITC based flow cytometry (reference value: 0.81%); format: functional
RPMI-8226 [14] = experiment: Induction of apoptosis in human RPMI8226 cells assessed as necrotic cells at 4 uM measured after 36 hrs by Annexin V-FITC based flow cytometry (reference value: 0.03%); format: functional
RPMI-8226 [15] = experiment: Cell cycle arrest in human RPMI8226 cells assessed as accumulation of cells at G1 phase at 1 uM measured after 36 hrs by flow cytometry (reference value: 22.95%); format: functional
RPMI-8226 [16] = experiment: Cell cycle arrest in human RPMI8226 cells assessed as accumulation of cells at G2 phase at 1 uM measured after 36 hrs by flow cytometry (reference value: 27.03%); format: functional
RPMI-8226 [17] = experiment: Cell cycle arrest in human RPMI8226 cells assessed as accumulation of cells at S phase at 1 uM measured after 36 hrs by flow cytometry (reference value: 50.02%); format: functional
RPMI-8226 [18] = experiment: Cell cycle arrest in human RPMI8226 cells assessed as accumulation of cells at G1 phase at 2 uM measured after 36 hrs by flow cytometry (reference value: 22.95%); format: functional
RPMI-8226 [19] = experiment: Cell cycle arrest in human RPMI8226 cells assessed as accumulation of cells at G2 phase at 2 uM measured after 36 hrs by flow cytometry (reference value: 27.03%); format: functional
RPMI-8226 [20] = experiment: Cell cycle arrest in human RPMI8226 cells assessed as accumulation of cells at S phase at 2 uM measured after 36 hrs by flow cytometry (reference value: 50.02%); format: functional
RPMI-8226 [21] = experiment: Cell cycle arrest in human RPMI8226 cells assessed as accumulation of cells at G1 phase at 4 uM measured after 36 hrs by flow cytometry (reference value: 22.95%); format: functional
RPMI-8226 [22] = experiment: Cell cycle arrest in human RPMI8226 cells assessed as accumulation of cells at G2 phase at 4 uM measured after 36 hrs by flow cytometry (reference value: 27.03%); format: functional
RPMI-8226 [23] = experiment: Cell cycle arrest in human RPMI8226 cells assessed as accumulation of cells at S phase at 4 uM measured after 36 hrs by flow cytometry (reference value: 50.02%); format: functional
RPMI-8226 [24] = experiment: Reduction in DEPTOR mRNA expression in human RPMI8226 cells by quantitative PCR analysis relative to control; format: functional, cell-based; details: dose 1-4 µM
RPMI-8226 [25] = experiment: Reduction in DEPTOR protein expression in human RPMI8226 cells incubated for 24 hrs by Western blot analysis; format: functional, cell-based; details: dose 1-4 µM
RPMI-8226 [26] = experiment: Antitumor activity against human RPMI8226 cells xenografted in BALB/c mouse assessed as tumor growth inhibition at 100 mg/kg, po once a day for 3 weeks relative to control; format: functional; details: RPMI-8226, po, 504 h, read-out: TGI
RPMI-8226 [27] = experiment: Antitumor activity against human RPMI8226 cells xenografted in BALB/c mouse assessed as tumor growth inhibition at 200 mg/kg, po once a day for 3 weeks relative to control; format: functional; details: RPMI-8226, po, 504 h, read-out: TGI
RPMI-8226 [28] = experiment: Antitumor activity against human RPMI8226 cells xenografted in BALB/c mouse assessed as reduction in tumor weight at 100 to 200 mg/kg, po once a day for 3 weeks; format: functional, organism-based; details: dose 100-200 mg/kg
[29] = Toxicity in BALB/c mouse xenografted with human RPMI8226 cells assessed as change in body weight at 100 to 200 mg/kg, po once a day for 3 weeks; format: organism-based, RPMI-8226; details: in vivo, 504 h, dose 100-200 mg/kg
NCI-H460 = experiment: cells; details: Homo sapiens, NCI-H460, 72 h
Description: Antiproliferative activity against human NCI-H460 cells assessed as inhibition of cell proliferation incubated for 72 hrs by CCK8 assay

SiHa = experiment: cells; details: Homo sapiens, 72 h
Description: Antiproliferative activity against human SiHa cells assessed as inhibition of cell proliferation incubated for 72 hrs by CCK8 assay

U-266 = experiment: cells; details: Homo sapiens, U-266, 72 h
Description: Antiproliferative activity against human U266 cells assessed as inhibition of cell proliferation incubated for 72 hrs by CCK8 assay

MOLT-4 = experiment: cells; details: Homo sapiens, MOLT-4, 72 h
Description: Antiproliferative activity against human MOLT-4 cells assessed as inhibition of cell proliferation incubated for 72 hrs by CCK8 assay

HL-60 = experiment: cells; details: Homo sapiens, HL-60, 72 h
Description: Antiproliferative activity against human HL-60 cells assessed as inhibition of cell proliferation incubated for 72 hrs by CCK8 assay

MCF7 = experiment: cells; details: Homo sapiens, MCF7, 72 h
Description: Antiproliferative activity against human MCF7 cells assessed as inhibition of cell proliferation incubated for 72 hrs by CCK8 assay

MGC-803 = experiment: cells; details: Homo sapiens, MGC-803, 72 h
Description: Antiproliferative activity against human MGC-803 cells assessed as inhibition of cell proliferation incubated for 72 hrs by CCK8 assay

HepG2 = experiment: cells; details: Homo sapiens, HepG2, 72 h
Description: Antiproliferative activity against human HepG2 cells assessed as inhibition of cell proliferation incubated for 72 hrs by CCK8 assay

U2OS = experiment: cells; details: Homo sapiens, 72 h
Description: Antiproliferative activity against human U2OS cells assessed as inhibition of cell proliferation incubated for 72 hrs by CCK8 assay

DLD-1 = experiment: cells; details: Homo sapiens, DLD-1, 72 h
Description: Antiproliferative activity against human DLD1 cells assessed as inhibition of cell proliferation incubated for 72 hrs by CCK8 assay

U-251 = experiment: cells; details: Homo sapiens, U-251, 72 h
Description: Antiproliferative activity against human U251 cells assessed as inhibition of cell proliferation incubated for 72 hrs by CCK8 assay

RPMI-8226 [30] = experiment: Antiproliferative activity against human RPMI8226 cells assessed as inhibition of cell proliferation at 250 uM incubated for 72 hrs by CCK8 assay; format: functional

Compound: COc1ccc(-c2oc3c(CNCC4CCOCC4)c(O)ccc3c(=O)c2O)c(OC)c1
inhibition at 125 µM (RPMI-8226 [2]): 16%

Compound: O=C(O)[C@@H]1CCCN1Cc1c(O)ccc2c(=O)c(O)c(-c3cccc(Cl)c3Cl)oc12
inhibition at 125 µM (RPMI-8226 [2]): 49%

Compound: COc1ccc(-c2oc3c(CN4CCOCC4)c(O)ccc3c(=O)c2O)c(OC)c1
inhibition at 125 µM (RPMI-8226 [2]): 25%

Compound: COc1ccc(-c2oc3c(CNCc4cccc(F)c4)c(O)ccc3c(=O)c2O)c(OC)c1
inhibition at 125 µM (RPMI-8226 [2]): 19%

Compound: COc1ccc(-c2oc3c(CNCC(=O)O)c(O)ccc3c(=O)c2O)c(OC)c1
IC50 (RPMI-8226 [1]): 66.2 µM

Compound: COc1ccc(-c2oc3c(CC=C(C)C)c(O)cc(O)c3c(=O)c2O)cc1 [ICARITIN]
IC50 (RPMI-8226 [1]): 20.8 µM

Compound: CCN(CC)Cc1c(O)ccc2c(=O)c(O)c(-c3ccc(OC)cc3OC)oc12
inhibition at 125 µM (RPMI-8226 [2]): 25%

Compound: COc1ccc(-c2oc3c4c(ccc3c(=O)c2O)OCN(NCc2ccc(Cl)c(Cl)c2)C4)c(OC)c1
inhibition at 125 µM (RPMI-8226 [2]): 36%

Compound: COc1ccc(-c2oc3c(CN4CCCC4)c(O)ccc3c(=O)c2O)c(OC)c1
inhibition at 250 µM (RPMI-8226 [30]): 53%

Compound: COc1ccc(-c2oc3c(CNCc4ccccc4)c(O)ccc3c(=O)c2O)c(OC)c1
IC50 (RPMI-8226 [1]): 14.9 µM

Compound: COc1ccc(-c2oc3c(CNC(Cc4ccccc4)C(=O)O)c(O)ccc3c(=O)c2O)c(OC)c1 (stereo not given)
inhibition at 125 µM (RPMI-8226 [2]): 30%

Continued, in another order:

IC50 (RPMI-8226 [1]): 60.4 µM
Compound: CCN(CC)Cc1c(O)ccc2c(=O)c(O)c(-c3cccc(Cl)c3Cl)oc12

IC50 (RPMI-8226 [1]): 42.8 µM
Compound: O=c1c(O)c(-c2cccc(Cl)c2Cl)oc2c(CN3CCCC3)c(O)ccc12

IC50 (RPMI-8226 [1]): 4.03 µM
Compound: O=c1c(O)c(-c2ccc(Cl)c(Cl)c2)oc2c(CN3CCOCC3)c(O)ccc12

IC50 (RPMI-8226 [1]): 29.8 µM
Compound: O=c1c(O)c(-c2cccc(Cl)c2Cl)oc2c(CN3CCOCC3)c(O)ccc12

IC50 (RPMI-8226 [1]): 4.81 µM
Compound: O=c1c(O)c(-c2ccc(Cl)c(Cl)c2)oc2c3c(ccc12)OCN(CC1CCOCC1)C3

IC50 (RPMI-8226 [1]): 56.6 µM
Compound: COc1ccc(-c2oc3c(CNCc4ccncc4)c(O)ccc3c(=O)c2O)c(OC)c1

IC50 (RPMI-8226 [1]): 44.8 µM
Compound: COc1ccc(-c2oc3c4c(ccc3c(=O)c2O)OCN(C2CCN(C)CC2)C4)c(OC)c1

IC50 (NCI-H460): > 10 µM
IC50 (SiHa): > 10 µM
IC50 (RPMI-8226 [1]): 1.09 µM
IC50 (U-266): 1110 nM
IC50 (MOLT-4): 7.02 µM
IC50 (HL-60): 6.6 µM
IC50 (MCF7): 8.68 µM
IC50 (MGC-803): > 10 µM
IC50 (HepG2): > 10 µM
IC50 (U2OS): > 10 µM
IC50 (DLD-1): 10 µM
IC50 (U-251): > 10 µM
Compound: O=c1c(O)c(-c2ccc(Cl)c(Cl)c2)oc2c3c(ccc12)OCN(Cc1cccc(F)c1)C3
viability at 1 µM (RPMI-8226 [3]): 65%
Activity (RPMI-8226 [4]): 24.26%
Activity (RPMI-8226 [5]): 9.16%
Activity (RPMI-8226 [6]): 1.55%
viability at 2 µM (RPMI-8226 [7]): 29.4%
Activity (RPMI-8226 [8]): 53.44%
Activity (RPMI-8226 [9]): 16.6%
Activity (RPMI-8226 [10]): 0.54%
viability at 4 µM (RPMI-8226 [11]): 13.9%
Activity (RPMI-8226 [12]): 60.59%
Activity (RPMI-8226 [13]): 25.18%
Activity (RPMI-8226 [14]): 0.28%
Activity (RPMI-8226 [15]): 22.33%
Activity (RPMI-8226 [16]): 25.91%
Activity (RPMI-8226 [17]): 51.75%
Activity (RPMI-8226 [18]): 18.17%
Activity (RPMI-8226 [19]): 26.33%
Activity (RPMI-8226 [20]): 55.5%
Activity (RPMI-8226 [21]): 22.38%
Activity (RPMI-8226 [22]): 15.01%
Activity (RPMI-8226 [23]): 62.51%
Activity (RPMI-8226 [24]): Dose-Dependent Effect
Activity (RPMI-8226 [25]): Dose-Dependent Effect
inhibition in vivo at 100 mg/kg (RPMI-8226 [26]): 45.4%
inhibition in vivo at 200 mg/kg (RPMI-8226 [27]): 61.1%
Activity (RPMI-8226 [28]): Active
Activity [29]: Non-Toxic

IC50 (RPMI-8226 [1]): 5.9 µM
Compound: O=c1c(O)c(-c2ccc(Cl)c(Cl)c2)oc2c3c(ccc12)OCN(Cc1ccncc1)C3

IC50 (RPMI-8226 [1]): 4.29 µM
Compound: CN1CCC(N2COc3ccc4c(=O)c(O)c(-c5cccc(Cl)c5Cl)oc4c3C2)CC1

IC50 (RPMI-8226 [1]): 27.6 µM
Compound: O=c1c(O)c(-c2ccncc2)oc2c3c(ccc12)OCN(Cc1ccc(Cl)c(Cl)c1)C3

Source: ChEMBL document CHEMBL4831542, “Design, Synthesis, and Biological Evaluation of Icaritin Derivatives as Novel Putative DEPTOR Inhibitors for Multiple Myeloma Treatment” (J Med Chem, 2021)
